The values below come from the NIST ThermoML archive (doi:10.1016/j.fluid.2015.08.007).

Several values for one entry are separate records, joined by “and”; a condition that tells them apart may be missing. Identical values can stand only once. ± gives the expanded uncertainty stated by the source.

The conditions of the first series: Crystal 1; DTA.
For `CCCC[N+]1(C)CCCC1.[Br-]` [1-butyl-1-methylpyrrolidinium bromide], the Normal melting temperature is 204 ± 2 °C.

Staying with this series, now noted: Crystal; DTA.
With `CCCC[N+]1(C)CCCC1.F[B-](F)(F)F` [1-butyl-1-methylpyrrolidinium tetrafluoroborate], the Normal melting temperature was 152 ± 2 °C and 151 ± 2 °C.
Same read-out and setting: as for `CCCC[N+]1(C)CCCC1.[Br-]` [1-butyl-1-methylpyrrolidinium bromide], the figure is 204 ± 2 °C; as for `CC[N+]1(C)CCCC1.O=S(=O)([N-]S(=O)(=O)C(F)(F)F)C(F)(F)F`, 91 ± 2 °C; as for `CC[N+]1(C)CCCC1.F[B-](F)(F)F` [1-ethyl-1-methylpyrrolidinium tetrafluoroborate], 66 ± 2 °C.
Same read-out and setting: the result for `CCCC[N+]1(C)CCCC1.[Cl-]` [1-butyl-1-methylpyrrolidinium chloride] reads 201 ± 2 °C and 204 ± 2 °C.
